# Reference: patent publication US20110053947A1, “Arylchalcogenoarylalkyl-substituted imidazolidine-2,4-diones, process for preparation thereof, medicaments comprising these compounds and use thereof” (SANOFI-AVENTIS, priority 2008, published 2011)
# Structures can show the parent of a compound that is named as a salt.
# Target: T1, cannabinoid 1 receptor (hCB1R) (Homo sapiens, UniProt P21554)
# T1 construct: expressed in transfected cells; host or cells: HEK293
# Test: In vitro functional assay with recombinant cells (FLIPR), CB1
# Type: cell-based
# Settings: recombinant HEK293 cells expressing CB1 and G-protein; intracellular Ca2+ change after reference agonist, 20 min preincubation; read-out: hCB1R: FLIPR; IC50
# Method: In vitro functional assays with recombinant cells:
# Function-testing assays were performed by means of the FLIPR technique (“Fluorometric Imaging Plate Reader”, Molecular Devices Corp.).
# To this end, ligand-induced changes in the intracellular concentration of Ca^2+ in recombinant HEK293 cells, which expressed both a cannabinoid receptor (CB1 or CB2) and G-protein Galphal6, were determined. For the studies, cells were sown into 96-well microtiter plates (60 000 cells/well) and left to grow overnight. The medium was removed and the cells were incubated in buffer which contained the fluorescent dye Fluo-4. After this loading with dye, the cells were washed, test substance was added dissolved in buffer, the mixture was incubated for 20 minutes, a known cannabinoid receptor agonist as a reference agonist was added in buffer and, finally, the changes in the intracellular Ca^2+ concentration were measured in the FLIPR unit.
# Results were presented as the percentage change relative to the control (0%: analogous experiment without test substance and without reference agonist, i.e. only with buffer; 100%: analogous experiment without test substance, but with reference agonist in excess), and used to calculate dose/action curves, and IC50 values were determined.
# The values of the functional assay compared to the cannabinoid 1 receptor including illustrative selectivities compared to the cannabinoid 2 receptor can be taken from table 1 which follows.
# T1 sequence (P21554 whole entry): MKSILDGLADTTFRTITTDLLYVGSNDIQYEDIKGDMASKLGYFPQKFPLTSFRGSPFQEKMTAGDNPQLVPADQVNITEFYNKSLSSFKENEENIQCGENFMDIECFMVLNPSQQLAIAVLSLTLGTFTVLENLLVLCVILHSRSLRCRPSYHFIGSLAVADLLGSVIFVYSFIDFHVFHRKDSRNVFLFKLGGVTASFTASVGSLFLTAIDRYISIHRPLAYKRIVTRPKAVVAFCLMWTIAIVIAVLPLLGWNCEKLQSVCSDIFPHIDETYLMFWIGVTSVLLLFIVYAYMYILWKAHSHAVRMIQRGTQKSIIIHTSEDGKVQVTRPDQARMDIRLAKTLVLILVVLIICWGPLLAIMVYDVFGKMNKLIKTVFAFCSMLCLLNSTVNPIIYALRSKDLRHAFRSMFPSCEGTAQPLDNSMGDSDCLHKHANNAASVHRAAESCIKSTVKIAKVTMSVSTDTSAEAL
row,Compound,IC50
1,"CC1(C)C(=O)N(c2ccc(C#N)c(C(F)(F)F)c2)C(=O)N1Cc1ccccc1NC(=O)Nc1ccc(C(N)=O)cc1 [Example 16, 4-(3-{2-[3-(4-Cyano-3-trifluoromethylphenyl)-5,5-dimethyl-2,4-dioxoimidazolidin-1-ylmethyl]phenyl}ureido)benzamide]",0.012 µM
2,"COC(=O)c1ccc(NC(=O)Nc2cc(F)ccc2CN2C(=O)N(c3ccc(C#N)c(C(F)(F)F)c3)C(=O)C2(C)C)cc1 [Example 17, Methyl 4-(3-{2-[3-(4-cyano-3-trifluoromethylphenyl)-5,5-dimethyl-2,4-dioxoimidazolidin-1-ylmethyl]-5-fluorophenyl}ureido)benzoate]",0.01 µM
3,"CC1(C)C(=O)N(c2ccc(C#N)c(C(F)(F)F)c2)C(=O)N1Cc1ccc(F)cc1NC(=O)Nc1ccc(S(C)(=O)=O)cc1 [Example 19, 1-{2-[3-(4-Cyano-3-trifluoromethylphenyl)-5,5-dimethyl-2,4-dioxoimidazolidin-1-ylmethyl]-5-fluorophenyl}-3-(4-methane-sulfonylphenyl)urea]",0.009 µM
4,"CC1(C)C(=O)N(c2ccc(C#N)c(C(F)(F)F)c2)C(=O)N1Cc1ccc(F)cc1NC(=O)Nc1ccc(Cl)nc1 [Example 20, 1-(6-chloropyridin-3-yl)-3-{2-[3-(4-cyano-3-trifluoromethylphenyl)-5,5-dimethyl-2,4-dioxoimidazolidin-1-ylmethyl]-5-fluorophenyl}urea]",0.016 µM
5,"CC1(C)C(=O)N(c2ccc(C#N)c(C(F)(F)F)c2)C(=O)N1Cc1ccc(F)cc1NC(=O)Nc1ccc(S(N)(=O)=O)cc1 [Example 22, 4-(3-{2-[3-(4-Cyano-3-trifluoromethylphenyl)-5,5-dimethyl-2,4-dioxoimidazolidin-1-ylmethyl]-5-fluorophenyl}ureido)benzenesulfonamide]",0.009 µM
6,"CC1(C)C(=O)N(c2ccc(F)c(C(F)(F)F)c2)C(=O)N1Cc1ccc(F)cc1NC(=O)Nc1ccc(S(=O)(=O)O)cc1 [Example 25, 4-(3-{5-fluoro-2-[3-(4-fluoro-3-trifluoromethylphenyl)-5,5-dimethyl-2,4-dioxoimidazolidin-1-ylmethyl]phenyl}ureido)benzenesulfonic acid]",0.058 µM
7,"CC1(C)C(=O)N(c2ccc(F)c(C(F)(F)F)c2)C(=O)N1Cc1ccc(F)cc1NC(=O)Nc1ccc(S(=O)(=O)O)cc1 [Example 26, Sodium salt of 4-(3-{5-fluoro-2-[3-(4-fluoro-3-trifluoromethylphenyl)-5,5-dimethyl-2,4-dioxoimidazolidin-1-ylmethyl]phenyl}ureido)benzenesulfonic acid]",0.066 µM
8,"CC1(C)C(=O)N(c2ccc(F)c(C(F)(F)F)c2)C(=O)N1Cc1ccc(F)cc1NC(=O)Nc1ccc(S(C)(=O)=O)cc1 [Example 27, 1-{5-Fluoro-2-[3-(4-fluoro-3-trifluoromethylphenyl)-5,5-dimethyl-2,4-dioxoimidazolidin-1-ylmethyl]phenyl}-3-(4-methanesulfonylphenyl)urea]",0.013 µM
9,"CC1(C)C(=O)N(c2ccc(C#N)c(C3CC3)c2)C(=O)N1Cc1ccc(F)cc1NC(=O)Nc1ccc(S(N)(=O)=O)cc1 [Example 28, 4-(3-{2-[3-(4-Cyano-3-cyclopropylphenyl)-5,5-dimethyl-2,4-dioxoimidazolidin-1-ylmethyl]-5-fluorophenyl}ureido)benzenesulfonamide]",0.009 µM
10,"CC1(C)C(=O)N(c2ccc(C#N)c(C3CC3)c2)C(=O)N1Cc1ccc(F)cc1NC(=O)Nc1ccc(S(=O)(=O)O)cc1 [Example 29, 4-(3-{2-[3-(4-cyano-3-cyclopropylphenyl)-5,5-dimethyl-2,4-dioxo-imidazolidin-1-ylmethyl]-5-fluorophenyl}ureido)benzenesulfonic acid]",0.069 µM
11,"CC1(C)C(=O)N(c2ccc(C#N)c(C3CC3)c2)C(=O)N1Cc1ccc(F)cc1NC(=O)Nc1ccc(S(C)(=O)=O)cc1 [Example 30, 1-{2-[3-(4-Cyano-3-cyclopropylphenyl)-5,5-dimethyl-2,4-dioxoimidazolidin-1-ylmethyl]-5-fluorophenyl}-3-(4-methanesulfonylphenyl)urea]",0.011 µM
12,"CSc1ccc(NC(=O)Nc2cc(F)ccc2CN2C(=O)N(c3ccc(C#N)c(C4CC4)c3)C(=O)C2(C)C)cc1 [Example 30.1, 1-{2-[3-(4-cyano-3-cyclopropylphenyl)-5,5-dimethyl-2,4-dioxoimidazolidin-1-ylmethyl]-5-fluorophenyl}-3-(4-methylsulfanylphenyl)urea]",0.012 µM
13,"CC1(C)C(=O)N(c2ccc(F)c(C(F)(F)F)c2)C(=O)N1Cc1ccc(F)cc1NC(=O)Nc1ccc(NS(C)(=O)=O)cc1 [Example 31, N-[4-(3-{5-Fluoro-2-[3-(4-fluoro-3-trifluoromethylphenyl)-5,5-dimethyl-2,4-dioxoimidazolidin-1-ylmethyl]phenyl}ureido)phenyl]methanesulfonamide]",0.032 µM
14,"CC1(C)C(=O)N(c2ccc(C#N)c(C(F)(F)F)c2)C(=O)N1Cc1ccc(F)cc1NC(=O)Nc1ccc(O)cc1 [Example 41, 1-{2-[3-(4-Cyano-3-trifluoromethylphenyl)-5,5-dimethyl-2,4-dioxo-imidazolidin-1-ylmethyl]-5-fluorophenyl}-3-(4-hydroxyphenyl)urea]",0.004 µM
15,"CC1(C)C(=O)N(c2ccc(C#N)c(C3CC3)c2)C(=O)N1Cc1ccc(F)cc1NC(=O)Nc1ccc(S(=O)(=O)CC(=O)O)cc1 [Example 47, [4-(3-{2-[3-(4-Cyano-3-cyclopropylphenyl)-5,5-dimethyl-2,4-dioxoimidazolidin-1-ylmethyl]-5-fluorophenyl}ureido)benzenesulfonyl]acetic acid]",0.025 µM
16,"CC1(C)C(=O)N(c2ccc(C#N)c(C(F)(F)F)c2)C(=O)N1Cc1ccc(F)cc1NC(=O)Nc1ccc(SCC(=O)O)cc1 [Example 50, [4-(3-{2-[3-(4-Cyano-3-trifluoromethylphenyl)-5,5-dimethyl-2,4-dioxoimidazolidin-1-ylmethyl]-5-fluorophenyl}ureido)phenylsulfanyl]acetic acid]",0.013 µM
17,"CC1(C)C(=O)N(c2ccc(F)c(C(F)(F)F)c2)C(=O)N1Cc1ccc(F)cc1NC(=O)Nc1ccc(C(=O)O)cc1 [Example 60, 4-(3-{5-fluoro-2-[3-(4-fluoro-3-trifluoromethylphenyl)-5,5-dimethyl-2,4-dioxoimidazolidin-1-ylmethyl]phenyl}-ureido)benzoic acid]",0.053 µM
18,"CC1(C)C(=O)N(c2ccc(F)c(C(F)(F)F)c2)C(=O)N1Cc1ccc(F)cc1NC(=O)Nc1ccc(C(=O)NS(C)(=O)=O)cc1 [Example 61, N-[4-(3-{5-Fluoro-2-[3-(4-fluoro-3-trifluoromethylphenyl)-5,5-dimethyl-2,4-dioxoimidazolidin-1-ylmethyl]phenyl}ureido)benzoyl]methanesulfonamide]",0.016 µM
19,"CC1(C)C(=O)N(c2ccc(F)c(C(F)(F)F)c2)C(=O)N1Cc1ccc(F)cc1NC(=O)Nc1ccc(C(=O)NS(=O)(=O)C(F)(F)F)cc1 [Example 62, C,C,C-trifluoro-N-[4-(3-{5-fluoro-2-[3-(4-fluoro-3-trifluoromethylphenyl)-5,5-dimethyl-2,4-dioxoimidazolidin-1-ylmethyl]phenyl}ureido)benzoyl]methanesulfonamide]",0.046 µM
20,"CC1(C)C(=O)N(c2ccc(F)c(C(F)(F)F)c2)C(=O)N1Cc1ccc(F)cc1NC(=O)Nc1ccc(C(=O)NS(=O)(=O)Cc2ccccc2)cc1 [Example 64, N-[4-(3-{5-fluoro-2-[3-(4-fluoro-3-trifluoromethylphenyl)-5,5-dimethyl-2,4-dioxoimidazolidin-1-ylmethyl]phenyl}ureido)benzoyl]-C-phenylmethanesulfonamide]",0.039 µM
21,"CC1(C)C(=O)N(c2ccc(F)c(C(F)(F)F)c2)C(=O)N1Cc1ccc(F)cc1NC(=O)Nc1ccc(C(=O)NS(=O)(=O)C2CC2)cc1 [Example 65, N-[4-(3-{5-fluoro-2-[3-(4-fluoro-3-trifluoromethylphenyl)-5,5-dimethyl-2,4-dioxoimidazolidin-1-ylmethyl]phenyl}ureido)benzoyl]cyclopropanesulfonamide]",0.042 µM
22,"CC1(C)C(=O)N(c2ccc(C#N)c(C3CC3)c2)C(=O)N1Cc1cc(C(F)(F)F)ccc1NC(=O)Nc1ccc(S(C)(=O)=O)cc1 [Example 66, 1-{2-[3-(4-Cyano-3-cyclopropylphenyl)-5,5-dimethyl-2,4-dioxoimidazolidin-1-ylmethyl]-4-trifluoromethylphenyl}-3-(4-methanesulfonylphenyl)urea]",0.01 µM
23,"CC1(C)C(=O)N(c2ccc(C#N)c(C3CC3)c2)C(=O)N1Cc1cc(Cl)ccc1NC(=O)Nc1ccc(S(C)(=O)=O)cc1 [Example 67, 1-{4-chloro-2-[3-(4-cyano-3-cyclopropylphenyl)-5,5-dimethyl-2,4-dioxoimidazolidin-1-ylmethyl]phenyl}-3-(4-methanesulfonylphenyl)urea]",0.006 µM
24,"COc1cc(CN2C(=O)N(c3ccc(F)c(C(F)(F)F)c3)C(=O)C2(C)C)c(NC(=O)Nc2ccc(S(N)(=O)=O)cc2)cc1OC [Example 68, 4-(3-{2-[3-(4-fluoro-3-trifluoromethylphenyl)-5,5-dimethyl-2,4-dioxoimidazolidin-1-ylmethyl]-4,5-dimethoxyphenyl}ureido)benzenesulfonamide]",0.039 µM
